Data published in US12186304B2, “Method for treating cancer by combination of IAP inhibitor and modulator of immune checkpoint molecule” (ASCENTAGE PHARMA (SUZHOU) CO., LTD., priority 2018, dated 2025).

Test: Phase I study (NCT03386526): safety and tolerability
Method: The Phase I dose escalation study included two parts.
Pembrolizumab was administered 200 mg IV on day 1 of a 21-day-cycle, until disease progression or untolerated toxicity.
The inclusion criteria for the Phase I study are: Age≥18 years; ECOG PS: 0-1;
Adequate hematologic, renal and liver functions; Advanced or metastatic solid tumor patients must be refractory to or intolerant of existing therapy(ies) known to provide clinical benefit for their condition.

Compound: CN[C@@H](C)C(=O)N[C@H]1CN(S(=O)(=O)c2cccc(S(=O)(=O)N3CC[C@H]4CC[C@@H](C(=O)NC(c5ccccc5)c5ccccc5)N4C(=O)[C@@H](NC(=O)[C@H](C)NC)C3)c2)CC[C@H]2CC[C@@H](C(=O)NC(c3ccccc3)c3ccccc3)N2C1=O [APG-1387]
- TRAEs (all Grades): Myalgia, % of patients (APG-1387 45 mg): (7.7%)
- TRAEs (all Grades): Myalgia, patients (APG-1387 45 mg): 1
- TRAEs (all Grades): Nausea, % of patients (APG-1387 45 mg): (7.7%)
- TRAEs (all Grades): Nausea, patients (APG-1387 45 mg): 1
- TRAEs (all Grades): Peripheral sensory neuropathy, % of patients (APG-1387 45 mg): (7.7%)
- TRAEs (all Grades): Peripheral sensory neuropathy, patients (APG-1387 45 mg): 1
- TRAEs (all Grades): Phlebitis, patients (APG-1387 45 mg): 0
- TRAEs (all Grades): Pneumonitis, patients (APG-1387 45 mg): 0
- TRAEs (all Grades): Pruritus, patients (APG-1387 45 mg): 0
- TRAEs (all Grades): Rash maculo-papular, patients (APG-1387 45 mg): 0
- TRAEs (all Grades): Tumor pain, patients (APG-1387 45 mg): 0
- # of pts discontinued treatment: Adverse Event (APG-1387 60 mg): 2
- # of pts discontinued treatment: Clinical progression (APG-1387 60 mg): 1
- # of pts discontinued treatment: Disease progression (APG-1387 60 mg): 1
- # of pts discontinued treatment: Lack of efficacy (APG-1387 60 mg): 0
- TRAEs (all Grades): Aspartate aminotransferase increased, patients (APG-1387 60 mg): 0
- TRAEs (all Grades): Bell's palsy, % of patients (APG-1387 60 mg): (20.0%)
- TRAEs (all Grades): Bell's palsy, patients (APG-1387 60 mg): 1
- TRAEs (all Grades): Blood bilirubin increased, % of patients (APG-1387 60 mg): (20.0%)
- TRAEs (all Grades): Blood bilirubin increased, patients (APG-1387 60 mg): 1
- TRAEs (all Grades): Decreased appetite, patients (APG-1387 60 mg): 0
- TRAEs (all Grades): Dehydration, patients (APG-1387 60 mg): 0
- TRAEs (all Grades): Diarrhoea, patients (APG-1387 60 mg): 0
- TRAEs (all Grades): Dyspepsia, patients (APG-1387 60 mg): 0
- TRAEs (all Grades): Eructation, patients (APG-1387 60 mg): 0
- TRAEs (all Grades): Fatigue, patients (APG-1387 60 mg): 0
- TRAEs (all Grades): Headache, % of patients (APG-1387 60 mg): (20.0%)
- TRAEs (all Grades): Headache, patients (APG-1387 60 mg): 1
- TRAEs (all Grades): Lipase increased, % of patients (APG-1387 60 mg): (20.0%)
- TRAEs (all Grades): Lipase increased, patients (APG-1387 60 mg): 1
- TRAEs (all Grades): Myalgia, patients (APG-1387 60 mg): 0
- TRAEs (all Grades): Nausea, patients (APG-1387 60 mg): 0
- TRAEs (all Grades): Peripheral sensory neuropathy, patients (APG-1387 60 mg): 0
- TRAEs (all Grades): Phlebitis, patients (APG-1387 60 mg): 0
- TRAEs (all Grades): Pneumonitis, % of patients (APG-1387 60 mg): (20.0%)
- TRAEs (all Grades): Pneumonitis, patients (APG-1387 60 mg): 1
- TRAEs (all Grades): Pruritus, % of patients (APG-1387 60 mg): (20.0%)
- TRAEs (all Grades): Pruritus, patients (APG-1387 60 mg): 1
- TRAEs (all Grades): Rash maculo-papular, % of patients (APG-1387 60 mg): (20.0%)
- TRAEs (all Grades): Rash maculo-papular, patients (APG-1387 60 mg): 1
- TRAEs (all Grades): Tumor pain, patients (APG-1387 60 mg): 0
- MTD of APG-1387 monotherapy (IV once weekly in a 21-day-cycle): 45 mg
- # of pts discontinued treatment: Adverse Event (Overall): 3
- # of pts discontinued treatment: Clinical progression (Overall): 2
- # of pts discontinued treatment: Disease progression (Overall): 14
- # of pts discontinued treatment: Lack of efficacy (Overall): 2
- TRAEs (all Grades): Aspartate aminotransferase increased, % of patients (Overall): (4.2%)
- TRAEs (all Grades): Aspartate aminotransferase increased, patients (Overall): 1
- TRAEs (all Grades): Bell's palsy, % of patients (Overall): (8.4%)
- TRAEs (all Grades): Bell's palsy, patients (Overall): 2
- TRAEs (all Grades): Blood bilirubin increased, % of patients (Overall): (4.2%)
- TRAEs (all Grades): Blood bilirubin increased, patients (Overall): 1
- TRAEs (all Grades): Decreased appetite, % of patients (Overall): (8.3%)
- TRAEs (all Grades): Decreased appetite, patients (Overall): 2
- TRAEs (all Grades): Dehydration, % of patients (Overall): (4.2%)
- TRAEs (all Grades): Dehydration, patients (Overall): 1
- TRAEs (all Grades): Diarrhoea, % of patients (Overall): (4.2%)
- TRAEs (all Grades): Diarrhoea, patients (Overall): 1
- TRAEs (all Grades): Dyspepsia, % of patients (Overall): (4.2%)
- TRAEs (all Grades): Dyspepsia, patients (Overall): 1
- TRAEs (all Grades): Eructation, patients (Overall): 0
- TRAEs (all Grades): Fatigue, % of patients (Overall): (12.5%)
- TRAEs (all Grades): Fatigue, patients (Overall): 3
- TRAEs (all Grades): Headache, % of patients (Overall): (8.3%)
- TRAEs (all Grades): Headache, patients (Overall): 2
- TRAEs (all Grades): Lipase increased, % of patients (Overall): (4.2%)
- TRAEs (all Grades): Lipase increased, patients (Overall): 1
- TRAEs (all Grades): Myalgia, % of patients (Overall): (4.2%)
- TRAEs (all Grades): Myalgia, patients (Overall): 1
- TRAEs (all Grades): Nausea, % of patients (Overall): (8.3%)
- TRAEs (all Grades): Nausea, patients (Overall): 2
- TRAEs (all Grades): Peripheral sensory neuropathy, % of patients (Overall): (4.2%)
- TRAEs (all Grades): Peripheral sensory neuropathy, patients (Overall): 1
- TRAEs (all Grades): Phlebitis, % of patients (Overall): (4.2%)
- TRAEs (all Grades): Phlebitis, patients (Overall): 1
- TRAEs (all Grades): Pneumonitis, % of patients (Overall): (4.2%)
- TRAEs (all Grades): Pneumonitis, patients (Overall): 1
- TRAEs (all Grades): Pruritus, % of patients (Overall): (8.3%)
- TRAEs (all Grades): Pruritus, patients (Overall): 2
- TRAEs (all Grades): Rash maculo-papular, % of patients (Overall): (8.3%)
- TRAEs (all Grades): Rash maculo-papular, patients (Overall): 2
- TRAEs (all Grades): Tumor pain, patients (Overall): 0
- Dose Limiting Toxicity (DLTs) observed (at 60 mg, lipase increase and facial nerve disorder): Two
- Most common treatment-related adverse events (TRAEs) (>10%) (patients): fatigue
- tolerability (patients, IV once weekly in a 21-day-cycle): well tolerated
